The text below walks through data of patent US10543212B2, “Substituted amines for treating cardiac diseases” (Cardurion Pharmaceuticals, LLC, priority 2017, dated 2020).

Structures are written as SMILES.

The target of one experiment is T1, Full-length, GST-tagged, human CaMKIIδ (Homo sapiens, UniProt Q13557).
T1 construct: Full-Length, Glutathione-S-Transferase(GST)-Tagged, Human CaMKIIδ was purchased from Carna Biosciences; purchased Carna Biosciences 02-111
T1 sequence (Q13557 1-478 isoform Q13557-12): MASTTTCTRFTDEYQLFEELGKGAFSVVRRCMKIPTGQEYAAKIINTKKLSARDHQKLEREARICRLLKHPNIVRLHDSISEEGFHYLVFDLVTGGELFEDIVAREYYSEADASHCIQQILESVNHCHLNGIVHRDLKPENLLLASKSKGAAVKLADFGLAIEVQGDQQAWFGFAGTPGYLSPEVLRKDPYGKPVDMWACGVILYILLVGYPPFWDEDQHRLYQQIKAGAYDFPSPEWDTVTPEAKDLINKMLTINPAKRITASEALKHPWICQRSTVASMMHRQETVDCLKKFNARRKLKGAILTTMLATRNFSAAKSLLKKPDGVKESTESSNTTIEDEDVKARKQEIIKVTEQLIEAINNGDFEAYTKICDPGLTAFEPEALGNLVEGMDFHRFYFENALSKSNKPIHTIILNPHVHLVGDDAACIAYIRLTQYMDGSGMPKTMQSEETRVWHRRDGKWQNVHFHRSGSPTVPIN
Description: CaMKIIδ binding assay (TR-FRET with BODIPY-labeled probe ligand). The note with it: CaMKIIδ binding assay, results of Table 2. On the procedure:
In vitro CaMKIIδ inhibitory activity was evaluated by a binding assay.
Full-Length, Glutathione-S-Transferase(GST)-Tagged, Human CaMKIIδ was purchased from Carna Biosciences (product #02-111, Kobe, Japan). Full-length bovine calmodulin was purchased from Wako Pure Chemical Industries (Osaka, Japan). Terbium-labeled anti-GST antibody (Tb-anti-GST Ab) was purchased from Life Technologies (Carlsbad, Calif., USA). Boron-dipyrromethene (BODIPY)-labeled probe ligand was synthesized as described below.
Time-Resolved Fluorescence Resonance Energy Transfer (TR-FRET) Assay
All assays were conducted using 384-well, white, flat-bottomed plates (product #784075, Greiner Bio-One, Frickenhausen, Germany) in kinase assay buffer, which consists of 50 mM HEPES pH 7.6, 10 mM MgCl2, 1 mM EGTA, 0.01% Brig-35, 0.1 mM DTT). The fluorescent probe ligand was added at a final concentration of 300 nM to solutions containing 0.21 nM Tb-anti-GST Ab, 1 mM CaCl2), 10 μg/mL calmodulin, and 0.5 nM GST-tagged CaMKIIδ. After shaded incubation of the protein-probe mixture on ice for 30 min, the premix was dispensed in the assay plate including test inhibitors with 4 fold dilution series of eight concentrations. After 1 hr incubation at room temperature, TR-FRET signals were measured in duplicate using an EnVision microplate reader (Perkin Elmer, Waltham, Mass., USA). The solution in each well was excited with a laser (λ=340 nm) reflected by a dichroic mirror (D400/D505 (Perkin Elmer) through an excitation filter (UV (TRF) 340, (Perkin Elmer)), and fluorescence from Tb and BODIPY were detected through two emission filters (CFP 495 (Perkin Elmer) for Tb, Emission 520 (Perkin Elmer) for BODIPY).
The percentage of inhibition of test compounds was calculated according to equation (1) Inhibition (%)=100×([…]−T)/(μH−μL) (1)
Where T is the value of the wells containing test compounds and μH and μL are the mean values of the 0% and 100% inhibition control wells, respectively. The values of the 0 and 100% controls were the signals obtained in the absence and presence of 3 μM its parent compound, respectively. The half maximal inhibitory concentration (IC50) of test compounds was calculated by fitting the data with the logistic equation using XLfit (IDBS, Guildford, UK). The IC50 was classified according to the following activity ranks.
In the case of `COC1CCC(N2CCC(n3cc(Nc4ncc(-c5ccc(Cl)c(OC(C)Cn6cnnn6)c5)cn4)c(C(F)(F)F)n3)CC2)CC1` (single isomer, unassigned; less polar) [Example 568, (S)-5-(3-((1-(1H-tetrazol-1-yl)propan-2-yl)oxy)-4-chlorophenyl)-N-(1-(1-(cis or trans-4-methoxycyclohexyl)piperidin-4-yl)-3-(trifluoromethyl)-1H-pyrazol-4-yl)pyrimidin-2-amine, less polar], the IC50 was under 0.01 µM.
Same read-out and setting: under `COC1CCC(N2CCC(n3cc(Nc4ncc(-c5ccc(Cl)c(OC(C)Cn6cnnn6)c5)cn4)c(C(F)(F)F)n3)CC2)CC1` (single isomer, unassigned; more polar) [Example 556, (S)-5-(3-((1-(1H-tetrazol-1-yl)propan-2-yl)oxy)-4-chlorophenyl)-N-(1-(1-(cis or trans-4-methoxycyclohexyl)piperidin-4-yl)-3-(trifluoromethyl)-1H-pyrazol-4-yl)pyrimidin-2-amine, more polar] stands under 0.01 µM.
On the same count and under the same terms, the figure for `C[C@@H](Cn1cnnn1)Oc1cc(-c2cnc(Nc3ccc4c(c3)N(C(=O)C3CCN(C)CC3)CC4)nc2)ccc1Cl` [Example 435, (S)-(6-((5-(3-((1-(1H-tetrazol-1-yl)propan-2-yl)oxy)-4-chlorophenyl)pyrimidin-2-yl)amino)indolin-1-yl) (1-methylpiperidin-4-yl)methanone] is under 0.01 µM; for `C[C@@H](Cn1cnnn1)Oc1cc(-c2cnc(Nc3ccc4c(c3)N(C(=O)CCCN(C)C)CC4)nc2)ccc1Cl` [Example 436, (S)-1-(6-((5-(3-((1-(1H-tetrazol-1-yl)propan-2-yl)oxy)-4-chlorophenyl)pyrimidin-2-yl)amino)indolin-1-yl)-4-(dimethylamino)butan-1-one] it is under 0.01 µM; for `C[C@@H](Cn1cnnn1)Oc1cc(-c2cnc(Nc3ccc4c(c3)N(C(=O)CCN(C)C)CC4)nc2)ccc1Cl` [Example 437, (S)-1-(6-((5-(3-((1-(1H-tetrazol-1-yl)propan-2-yl)oxy)-4-chlorophenyl)pyrimidin-2-yl)amino)indolin-1-yl)-3-(dimethylamino)propan-1-one] it is under 0.01 µM.
Still for that read-out and setting: under `COc1cc2c(cc1Nc1ncc(-c3ccc(Cl)c(O[C@@H](C)Cn4cnnn4)c3)cn1)C(=O)N(C1CCOCC1)C2` [Example 438, (S)-6-((5-(3-((1-(1H-tetrazol-1-yl)propan-2-yl)oxy)-4-chlorophenyl)pyrimidin-2-yl)amino)-5-methoxy-2-(tetrahydro-2H-pyran-4-yl)isoindolin-1-one] stands 0.01 to 0.1 µM; under `COc1cc(C)c(C(=O)N2CCOCC2)cc1Nc1ncc(-c2ccc(Cl)c(O[C@@H](C)Cn3cnnn3)c2)cn1` [Example 439, (S)-(5-((5-(3-((1-(1H-tetrazol-1-yl)propan-2-yl)oxy)-4-chlorophenyl)pyrimidin-2-yl)amino)-4-methoxy-2-methylphenyl)(morpholino)methanone], under 0.01 µM; under `COc1cc(C)c(C(=O)N2CCOCC2)cc1Nc1ncc(-c2ccc(C#N)c(O[C@@H](C)Cn3cnnn3)c2)cn1` [Example 440, (S)-2-((1-(1H-tetrazol-1-yl)propan-2-yl)oxy)-4-(2-((2-methoxy-4-methyl-5-(morpholine-4-carbonyl)phenyl)amino)pyrimidin-5-yl)benzonitrile], under 0.01 µM.
For `COc1cc2c(cc1Nc1ncc(-c3ccc(Cl)c(O[C@@H](C)Cn4cnnn4)c3)cn1)C(=O)N(C1CCC1)C2` [Example 441, (S)-6-((5-(3-((1-(1H-tetrazol-1-yl)propan-2-yl)oxy)-4-chlorophenyl)pyrimidin-2-yl)amino)-2-cyclobutyl-5-methoxyisoindolin-1-one], the IC50 is 0.01 to 0.1 µM.
The same measure, in the same setting: under `COc1cc2c(cc1Nc1ncc(-c3ccc(C#N)c(O[C@@H](C)Cn4cnnn4)c3)cn1)C(=O)N(C1CCC1)C2` [Example 442, (S)-2-((1-(1H-tetrazol-1-yl)propan-2-yl)oxy)-4-(2-((2-cyclobutyl-6-methoxy-3-oxoisoindolin-5-yl)amino)pyrimidin-5-yl)benzonitrile] stands 0.01 to 0.1 µM.
In the case of `COc1cc2c(cc1Nc1ncc(-c3ccc(C#N)c(O[C@@H](C)Cn4cncn4)c3)cn1)C(=O)N(C1CCC1)C2` [Example 443, (S)-2-((1-(1H-1,2,4-triazol-1-yl)propan-2-yl)oxy)-4-(2-((2-cyclobutyl-6-methoxy-3-oxoisoindolin-5-yl)amino)pyrimidin-5-yl)benzonitrile], the IC50 lay within 0.01 to 0.1 µM.
Still for that read-out and setting: the figure for `C[C@@H](Cn1cnnn1)Oc1cc(-c2cnc(Nc3ccc(N4CCC(N5CCOCC5)CC4)cc3C(N)=O)nc2)ccc1Cl` [Example 444, (S)-2-((5-(3-((1-(1H-tetrazol-1-yl)propan-2-yl)oxy)-4-chlorophenyl)pyrimidin-2-yl)amino)-5-(4-morpholinopiperidin-1-yl)benzamide] is at least 0.1 µM.

Staying with this experiment, now noted: CaMKIIδ binding assay; activity class per Table 2.
`C[C@@H](Cn1cnnn1)Oc1cc(-c2cnc(Nc3cn([C@@H]4CCNC[C@H]4O)nc3C(F)(F)F)nc2)ccc1Cl` (mixture of isomers) [Example 892, trans-4-(4-((5-(3-(((S)-1-(1H-tetrazol-1-yl)propan-2-yl)oxy)-4-chlorophenyl)pyrimidin-2-yl)amino)-3-(trifluoromethyl)-1H-pyrazol-1-yl)piperidin-3-ol] displayed an IC50 of under 0.01 µM.
The same measure, in the same setting: the figure for `C[C@@H](Cn1cnnn1)Oc1cc(-c2cnc(Nc3cn([C@@H]4CCN(C5CCOCC5)C[C@H]4O)nc3C(F)(F)F)nc2)ccc1Cl` (mixture of isomers) [Example 897, trans-4-(4-((5-(3-(((S)-1-(1H-tetrazol-1-yl)propan-2-yl)oxy)-4-chlorophenyl)pyrimidin-2-yl)amino)-3-(trifluoromethyl)-1H-pyrazol-1-yl)-1-(tetrahydro-2H-pyran-4-yl)piperidin-3-ol] is under 0.01 µM.
Still for that read-out and setting: under `C[C@@H](Cn1cnnn1)Oc1cc(-c2cnc(Nc3cn([C@@H]4CCN(C5CCC5)C[C@H]4O)nc3C(F)(F)F)nc2)ccc1Cl` (mixture of isomers) [Example 898, trans-4-(4-((5-(3-(((S)-1-(1H-tetrazol-1-yl)propan-2-yl)oxy)-4-chlorophenyl)pyrimidin-2-yl)amino)-3-(trifluoromethyl)-1H-pyrazol-1-yl)-1-cyclobutylpiperidin-3-ol] stands under 0.01 µM; under `C[C@@H](Cn1cnnn1)Oc1cc(-c2cnc(Nc3cn([C@@H]4CN(C5CCC5)CC[C@H]4O)nc3C(F)(F)F)nc2)ccc1Cl` (mixture of isomers) [Example 904, trans-3-(4-((5-(3-(((S)-1-(1H-tetrazol-1-yl)propan-2-yl)oxy)-4-chlorophenyl)pyrimidin-2-yl)amino)-3-(trifluoromethyl)-1H-pyrazol-1-yl)-1-cyclobutylpiperidin-4-ol], under 0.01 µM.

Still in this experiment, the particulars now being: Table 2; activity class for CaMKIIδ.
`C[C@@H](Cn1cnnn1)Oc1cc(-c2cnc(Nc3cn([C@@H]4CCCC[C@H]4O)nc3C(F)(F)F)nc2)ccc1Cl` (mixture of isomers) [Example 704, trans-2-(4-((5-(3-(((S)-1-(1H-tetrazol-1-yl)propan-2-yl)oxy)-4-chlorophenyl)pyrimidin-2-yl)amino)-3-(trifluoromethyl)-1H-pyrazol-1-yl)cyclohexan-1-ol] gave an IC50 of under 0.01 µM.
